Reference: US20260250318A1, “COMPOSITIONS AND METHODS FOR CROSSING THE BLOOD BRAIN BARRIER” (VOYAGER THERAPEUTICS, INC., priority 2022, published 2026)

Legend:
[1] = system: brains, heart, liver, muscle, and DRG of the NHPs; assay: Maturation of TTM-001 and TTM-002 capsids, NGS enrichment in NHP tissues; assay type: in vivo; conditions: relative to AAV9 control
In short: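 Variants carry mutations within and flanking the loop IV peptide insert: positions 450–466 were triplet-randomized, while positions 449–466 received low-frequency point mutations. The combined pool went into two NHPs, and each peptide was scored by NGS enrichment ratio against AAV9.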

brain = assay: Matured TTM-001 and TTM-002 variants, NGS enrichment in mouse brain; assay type: in vivo, mice; conditions: relative to AAV9 control
[2] = NGS fold-enrichment of RNA, NHP brain
[3] = NGS fold-enrichment, NHP liver DNA
[4] = NGS fold-enrichment, NHP liver RNA
[5] = NGS fold-enrichment, NHP muscle
[6] = NGS fold-enrichment, mouse brain
[7] = NGS fold-enrichment, DRG of NHPs
[8] = NGS fold-enrichment, RNA, brain of NHPs
[9] = NGS fold-enrichment, heart of NHPs
[10] = NGS fold-enrichment, liver DNA of NHPs
[11] = NGS fold-enrichment, liver RNA of NHPs
[12] = NGS fold-enrichment, muscle of NHPs
[13] = NGS fold-enrichment, brain of mice
[14] = NGS fold-enrichment of matured AAV capsid variants, NHP brain, RNA

| Sequence | Fold Enrichment relative to AAV9, Brain (NHP) [1, 2] [fold] | Fold Enrichment relative to AAV9, DRG (NHP) ([1]; NGS fold-enrichment, NHP DRG) [fold] | Fold Enrichment relative to AAV9, Heart (NHP) ([1]; NGS fold-enrichment, NHP heart) [fold] | Fold Enrichment relative to AAV9, Liver DNA (NHP) [1, 3] [fold] | Fold Enrichment relative to AAV9, Liver RNA (NHP) [1, 4] [fold] | Fold Enrichment relative to AAV9, Muscle (NHP) [1, 5] [fold] | Fold Enrichment relative to AAV9, Brain (Mouse) (brain; [6]) [fold] | other results |
| --- | --- | --- | --- | --- | --- | --- | --- | --- |
| KAIIGHESPHKSGQNQQT | 88.563 | 0.000 | 0.150 | 0.145 | 0.062 | 0.000 | 8.530 |  |
| KAIKGSGSPHSKAQDQQT | 82.258 | 0.000 | 0.000 | 0.000 | 0.108 | 0.000 | 85.178 | Fold Enrichment relative to AAV9, DRG (NHP) [1, 7]: 0.000 fold; Fold Enrichment relative to AAV9, Brain (NHP) [1, 8]: 82.258 fold; Fold Enrichment relative to AAV9, Heart (NHP) [1, 9]: 0.000 fold; Fold Enrichment relative to AAV9, Liver DNA (NHP) [1, 10]: 0.000 fold; Fold Enrichment relative to AAV9, Liver RNA (NHP) [1, 11]: 0.108 fold; Fold Enrichment relative to AAV9, Muscle (NHP) [1, 12]: 0.000 fold; Fold Enrichment relative to AAV9, Brain (Mouse) (brain; [13]): 85.178 fold |
| KAINGHDNPHKSGQNQQT | 88.906 | 0.297 | 0.721 | 0.130 | 0.222 | 0.482 | 9.702 |  |
| KAINGHDSPHKSAQNQET | 90.402 | 0.000 | 0.073 | 0.000 | 0.746 | 0.000 | 10.674 |  |
| KAINGHDSPHKSAQSQQT | 95.204 | 0.146 | 0.310 | 0.058 | 0.699 | 0.000 | 14.595 |  |
| KAINGHDSPHKSEKNQQT | 77.103 | 0.000 | 0.274 | 0.000 | 0.000 | 0.000 | 26.868 |  |
| KAINGHDSPHKSGPRQQT | 145.142 | 0.000 | 0.408 | 0.000 | 0.000 | 0.000 | 8.259 |  |
| KAINGHDSPHKSGQIRQT | 108.510 | 0.000 | 23.908 | 0.261 | 0.132 | 0.000 | 8.862 |  |
| KAINGHDSPHKSGQSPQT | 75.734 | 0.095 | 0.148 | 0.238 | 0.000 | 0.000 | 14.195 |  |
| KAINGPDSPHKSGQKQQT | 78.213 | 0.464 | 0.047 | 0.162 | 0.323 | 0.000 | 10.395 |  |
| KAINGSGSPHSKAHNQET |  |  |  |  |  |  |  | Fold Enrichment relative to AAV9, Brain (NHP) [1, 14]: 52.973 fold; Fold Enrichment relative to AAV9, DRG (NHP) ([1]; NHP DRG): 0.000 fold; Fold Enrichment relative to AAV9, Heart (NHP) ([1]; NHP heart): 0.030 fold; Fold Enrichment relative to AAV9, Liver DNA (NHP) ([1]; NHP liver, DNA): 0.058 fold; Fold Enrichment relative to AAV9, Liver RNA (NHP) ([1]; NHP liver, RNA): 0.035 fold; Fold Enrichment relative to AAV9, Muscle (NHP) ([1]; NHP muscle): 0.000 fold; Fold Enrichment relative to AAV9, Brain (Mouse) (brain; mouse brain): 71.809 fold |
| KAINGSGSPHSKAQDKQT |  |  |  |  |  |  |  | Fold Enrichment relative to AAV9, Brain (NHP) [1, 14]: 54.452 fold; Fold Enrichment relative to AAV9, DRG (NHP) ([1]; NHP DRG): 0.000 fold; Fold Enrichment relative to AAV9, Heart (NHP) ([1]; NHP heart): 0.000 fold; Fold Enrichment relative to AAV9, Liver DNA (NHP) ([1]; NHP liver, DNA): 0.223 fold; Fold Enrichment relative to AAV9, Liver RNA (NHP) ([1]; NHP liver, RNA): 0.044 fold; Fold Enrichment relative to AAV9, Muscle (NHP) ([1]; NHP muscle): 0.057 fold; Fold Enrichment relative to AAV9, Brain (Mouse) (brain; mouse brain): 56.004 fold |
| KAINGSGSPHSKAQDQET | 84.080 | 0.000 | 0.000 | 0.027 | 0.194 | 0.000 | 87.637 | Fold Enrichment relative to AAV9, DRG (NHP) [1, 7]: 0.000 fold; Fold Enrichment relative to AAV9, Brain (NHP) [1, 8]: 84.080 fold; Fold Enrichment relative to AAV9, Heart (NHP) [1, 9]: 0.000 fold; Fold Enrichment relative to AAV9, Liver DNA (NHP) [1, 10]: 0.027 fold; Fold Enrichment relative to AAV9, Liver RNA (NHP) [1, 11]: 0.194 fold; Fold Enrichment relative to AAV9, Muscle (NHP) [1, 12]: 0.000 fold; Fold Enrichment relative to AAV9, Brain (Mouse) (brain; [13]): 87.637 fold |
| KAINGSGSPHSKAQNAQT |  |  |  |  |  |  |  | Fold Enrichment relative to AAV9, DRG (NHP) [1, 7]: 0.000 fold; Fold Enrichment relative to AAV9, Brain (NHP) [1, 8]: 69.651 fold; Fold Enrichment relative to AAV9, Heart (NHP) [1, 9]: 0.000 fold; Fold Enrichment relative to AAV9, Liver DNA (NHP) [1, 10]: 0.142 fold; Fold Enrichment relative to AAV9, Liver RNA (NHP) [1, 11]: 0.023 fold; Fold Enrichment relative to AAV9, Muscle (NHP) [1, 12]: 0.000 fold; Fold Enrichment relative to AAV9, Brain (Mouse) (brain; [13]): 72.160 fold |
| KAINGSGSPHSKAQNLAT | 101.954 | 0.000 | 10.954 | 0.239 | 0.298 | 8.655 | 116.685 | Fold Enrichment relative to AAV9, DRG (NHP) [1, 7]: 0.000 fold; Fold Enrichment relative to AAV9, Brain (NHP) [1, 8]: 101.954 fold; Fold Enrichment relative to AAV9, Heart (NHP) [1, 9]: 10.954 fold; Fold Enrichment relative to AAV9, Liver DNA (NHP) [1, 10]: 0.239 fold; Fold Enrichment relative to AAV9, Liver RNA (NHP) [1, 11]: 0.298 fold; Fold Enrichment relative to AAV9, Muscle (NHP) [1, 12]: 8.655 fold; Fold Enrichment relative to AAV9, Brain (Mouse) (brain; [13]): 116.685 fold |
| KAINGSGSPHSKAQSQQI |  |  |  |  |  |  |  | Fold Enrichment relative to AAV9, Brain (NHP) [1, 14]: 56.976 fold; Fold Enrichment relative to AAV9, DRG (NHP) ([1]; NHP DRG): 0.000 fold; Fold Enrichment relative to AAV9, Heart (NHP) ([1]; NHP heart): 0.000 fold; Fold Enrichment relative to AAV9, Liver DNA (NHP) ([1]; NHP liver, DNA): 0.000 fold; Fold Enrichment relative to AAV9, Liver RNA (NHP) ([1]; NHP liver, RNA): 0.000 fold; Fold Enrichment relative to AAV9, Muscle (NHP) ([1]; NHP muscle): 0.000 fold; Fold Enrichment relative to AAV9, Brain (Mouse) (brain; mouse brain): 57.052 fold |
| KAINGYDSPHKSGQKQQT | 83.803 | 0.041 | 9.491 | 0.150 | 0.031 | 0.000 | 13.057 |  |
| KAINRSGSPHSKAQDQQT |  |  |  |  |  |  |  | Fold Enrichment relative to AAV9, Brain (NHP) [1, 14]: 51.262 fold; Fold Enrichment relative to AAV9, DRG (NHP) ([1]; NHP DRG): 0.000 fold; Fold Enrichment relative to AAV9, Heart (NHP) ([1]; NHP heart): 0.000 fold; Fold Enrichment relative to AAV9, Liver DNA (NHP) ([1]; NHP liver, DNA): 0.036 fold; Fold Enrichment relative to AAV9, Liver RNA (NHP) ([1]; NHP liver, RNA): 0.000 fold; Fold Enrichment relative to AAV9, Muscle (NHP) ([1]; NHP muscle): 0.000 fold; Fold Enrichment relative to AAV9, Brain (Mouse) (brain; mouse brain): 54.631 fold |
| KAISGHDSPHKSGLNQQT | 78.846 | 0.000 | 0.079 | 0.015 | 0.000 | 0.000 | 11.045 |  |
| KATNGSGSPHSKAQNHQT | 82.627 | 0.000 | 0.176 | 0.057 | 0.155 | 0.000 | 66.207 | Fold Enrichment relative to AAV9, DRG (NHP) [1, 7]: 0.000 fold; Fold Enrichment relative to AAV9, Brain (NHP) [1, 8]: 82.627 fold; Fold Enrichment relative to AAV9, Heart (NHP) [1, 9]: 0.176 fold; Fold Enrichment relative to AAV9, Liver DNA (NHP) [1, 10]: 0.057 fold; Fold Enrichment relative to AAV9, Liver RNA (NHP) [1, 11]: 0.155 fold; Fold Enrichment relative to AAV9, Muscle (NHP) [1, 12]: 0.000 fold; Fold Enrichment relative to AAV9, Brain (Mouse) (brain; [13]): 66.207 fold |
